Assays:
[1] = Calculated physicochemical parameters (molsoft cheminformatic tool); conditions: predicted
Experimental: Data set of physicochemical properties (cLogP, TPSA and molecular volume, Table 2) were calculated using the online available molsoft cheminformatic tool[23]. IC50 values of the compounds included in the test are presented in Table 1 for the correlations between IC50 and physicochemical properties of compounds modified in position 2 (Figure 2), and in Table S1 (SI) for the correlations between in vitro anti-cancer activity of JMV5038, compound 5 and […] on the NCI cell line panel (Figure 4). Pearson’s correlation coefficient r and level of significant p values were calculated using Origin Pro 2019.

OVCAR-8 = assay: NCI-60 SRB assay, OVCAR-8 (Ovarian Cancer); format: cell-based, human; conditions: 10 µM, 48 h; for G%: growth vs untreated control;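 as to Mean G% - G%: mean growth across the NCI-60 panel minus this line's growth with positive meaning more sensitive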
Experimental: (§1) Primary anticancer assay was performed on a panel of 60 human cancer cell lines derived from nine neoplastic diseases, in accordance with the protocol of the Drug Evaluation Branch, National Cancer Institute, Bethesda, Maryland, USA[22]. Cells were incubated with tested compounds at 10 µM for 48 h. The growth percentage was evaluated spectrophotometrically using a protein binding dye, SRB. Results for each tested compound were reported as the percent of growth of treated cells when compared to untreated control cells.
(§2) To better compare the activity profile of these two series of compounds, compounds 5 and 8 were selected and then evaluated towards a panel of sixty cancer cell lines corresponding to nine different cancer types, i.e. leukaemia, melanoma, as well as lung, colon, central nervous system, ovarian, renal, prostate and breast cancers (NCI evaluation). Indeed, it is now well established that the growth inhibitory patterns of anticancer drugs against the NCI-60 cell line panel correlated well with their modes of action. For example, compounds that bind to tubulin have similar growth inhibition patterns regardless of which site on tubulin they bind[30]. […] Compounds were tested using the sulforhodamine B (SRB) assay that provides a direct cell density index. The amount of dye incorporated by the cells increases with the increase of the total protein biomass. Cells were incubated for 48 h with compounds at 10 µM concentration, then cell growth was evaluated spectrophotometrically and presented as the percent of untreated control cells. Values of the most sensitive cell lines were compared to those obtained with JMV5038 (Figure 4, for all data see SI).

MDA-MB-435 cells = assay: DNA cell cycle analysis (flow cytometry); format: cell-based, human; conditions: 5 µM; for proportion of cells in G2/M phase: control 14.3%; for proportion of cells in G1 phase: control 47.1%
Experimental: The cell cycle analysis was performed as previously described to compare data with our previous results. Flow cytometric analysis was performed on 350,000 MDA-MB-435 cells seeded in culture dishes (60 mm diameter) and allowed to grow for 48 h. Cells were then treated with compound 5 or 8 at 5 µM concentration for 16 h and 48 h. After treatment cells were harvested and fixed with 70% ethanol. The fixed cells were then incubated with 10 mg/mL RNase A (Sigma Aldrich) and 1 mg/mL propidium iodide (Sigma Aldrich), in the dark, for 24 h at 4 °C. Finally, DNA content of the cells was analysed using Gallios Beckman Coulter flow cytometer with FlowJo software v1.0.
Thus, compound 5 could probably shared a common mechanism of action with JMV5038, contrary to compound 8. DNA cell cycle analysis was performed using MDA-MB-435 cells treated with either compound 5 or compound 8, and compared to that obtained with cells treated with vehicle (DMSO) as a negative control. Cell cycle pattern changes of MDA-MB-435 cells were investigated using fluorescence-activated cell sorting (FACS) (Figure 5 and Figure S1, SI). In this experiment MDA-MB-435 cells were treated with or without 5 µM concentration of compound 5 or 8 for 16 h and 48 h.

HL-60(TB) = assay: NCI-60 SRB assay, HL-60(TB) (Leukemia); format: cell-based, human; conditions: 10 µM, 48 h; for G%: growth vs untreated control
Experimental: as §1, §2

RPMI-8226 = assay: NCI-60 SRB assay, RPMI-8226 (Leukemia); format: cell-based, human; conditions: 10 µM, 48 h; for G%: growth vs untreated control
Experimental: as §1, §2

K-562 = assay: NCI-60 SRB assay, K-562 (Leukemia); format: cell-based, human; conditions: 10 µM, 48 h; for G%: growth vs untreated control
Experimental: as §1, §2

[2] = tested on: NIH-3T3 non-cancerous cells; set-up: method as in PMID 24561668; conditions: even at 100 µM; cited from earlier work

SMILES | molecular volume increase compared to JMV5038 [1] | Mean G% - G% (OVCAR-8) | G% (OVCAR-8) | proportion of cells in G2/M phase (MDA-MB-435 cells; 16 h) | proportion of cells in G1 phase (MDA-MB-435 cells; 16 h) | proportion of cells in G2/M phase (MDA-MB-435 cells; 48 h) | cells in subG1 phase (apoptosis) (MDA-MB-435 cells; time not explicit (sentence follows 48 h), control 1.2%) | Mean G% - G% (HL-60(TB)) | G% (HL-60(TB)) | Mean G% - G% (RPMI-8226) | G% (RPMI-8226) | Mean G% - G% (K-562) | G% (K-562) | cytotoxic activity on NIH-3T3 fibroblasts [2]
C[C@@H]1NC(c2ccc(N=[N+]=[N-])cc2)=Nc2nc3ccccn3c2C1=O [Compound 5, (4S)-4-methyl-2-(4-azidophenyl)-3,4-dihydro-5H-pyrido[1’,2’:1,2]imidazo[4,5-d][1,3]diazepin-5-one] | 4% | -16,08% | 101,34% | 33.1% | decrease of cells in G1 phase | 18.4% | 2.4% | – | – | – | – | – | – | –
C[C@@H]1NC(c2csc3ccccc23)=Nc2nc3ccccn3c2C1=O [Compound 8, (4S)-4-methyl-2-benzothiophen-3-yl-3,4-dihydro-5H-pyrido[1’,2’:1,2]imidazo[4,5-d][1,3]diazepin-5-one] | – | -9,67% | 84,54% | 20.8% | 53.0% | 15.4% | – | 6,00% | 68,87% | 24,51% | 50,36% | -6,34% | 81,21% | –
[N-]=[N+]=NCCCC[C@@H]1NC(c2ccc(Br)cc2)=Nc2nc3ccccn3c2C1=O [Compound 16, (4S)-4-(4-azidobutyl)-2-(4-bromophenyl)-3,4-dihydro-5H-pyrido[1’,2’:1,2]imidazo[4,5-d][1,3]diazepin-5-one] | – | 6,78% | 84,99% | – | – | – | – | 18,52% | 73,25% | – | – | – | – | –
C[C@@H]1NC(c2ccc(Br)cc2)=Nc2nc3ccccn3c2C1=O [JMV5038] | – | -18,28% | 72,52% | – | – | – | – | – | – | -39,73% | 93,97% | 29,92% | 24,32% | no significant cytotoxic activity
